# Reference: ChEMBL document CHEMBL1137363, “Discovering inhibitors of human sirtuin type 2: novel structural scaffolds” (J Med Chem, 2006)
# pIC50: −log10 of the molar value.
# Biological target: T1, NAD-dependent protein deacetylase sirtuin-2 (Homo sapiens, UniProt Q8IXJ6)
# T1 sequence (Q8IXJ6 whole entry): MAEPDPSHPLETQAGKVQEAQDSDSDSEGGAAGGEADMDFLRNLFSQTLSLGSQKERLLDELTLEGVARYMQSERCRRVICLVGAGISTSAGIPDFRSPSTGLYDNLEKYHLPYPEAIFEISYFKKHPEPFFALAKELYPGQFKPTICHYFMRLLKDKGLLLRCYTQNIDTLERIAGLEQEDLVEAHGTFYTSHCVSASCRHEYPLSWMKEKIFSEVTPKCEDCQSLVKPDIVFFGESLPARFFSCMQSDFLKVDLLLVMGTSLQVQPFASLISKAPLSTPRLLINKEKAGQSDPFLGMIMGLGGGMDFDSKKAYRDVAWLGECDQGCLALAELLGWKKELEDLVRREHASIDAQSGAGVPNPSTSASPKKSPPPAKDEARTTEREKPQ
# Experiment: Inhibition of human recombinant SIRT2
row,Compound,pIC50
1,CCCCC(CC)COCCCNC(=O)CCC(C)(c1ccc(O)cc1)c1ccc(O)cc1 (stereo not drawn),3.70
2,OCc1cccc(/C=N/c2cc(/N=C/c3cccc(CO)c3O)cc(C(F)(F)F)c2)c1O,4.04
3,CC1(C)CCC(C)(C)c2cc(-c3csc(C4CCN(Cc5ccc(N(CCC#N)CCC#N)cc5)CC4)n3)ccc21,3.87
